The target in series [1] is T1, ERBB4 (Homo sapiens, UniProt Q15303).
T1 construct: host or cells: U2OS
Description: PathHunter ERBB4/ERBB4 dimerization assay, compounds on top of 0.1 μM NRG-1 (identification of modulators). Type of series: cell-based. As to conditions: for Emax: on top of 0.1 μM NRG1, relative to NRG1 (set as 100%); for behaviour from the shape of the dose-response curves: on top of 0.1 μM neuregulin-1 (FIG. 1); for EC50: on top of 0.1 μM NRG1. As for the experimental part: (§1) Following 1-12 passages, U2OS ERBB4/ERBB4 dimerization cell line (Eurofins, 93-0961C3) were seeded at 10,000 cells/well in 100 μL cell plating reagent (Eurofins, 93-0563R0A) in white walled 96-well plates (PerkinElmer, 6005680) and incubated for 24h at 37° C. in humidified atmosphere of 5% CO2 in air. Cells were treated with 10 μL of compound (prepared at 11×, Enamine), 10 μM Heregulin-β1 (NRG-1) (DiscoverX, 92-1031 or Peprotech, 100-03) or PBS. […] Cells were subsequently incubated for 6 hours at 37° C., 5% CO2. Then 110 μL PathHunter Flash Detection Reagents (93-0247) were added to each well and cells were incubated at room temperature for 1 hour (covered from light). Afterwards luminescence signal was measured using the Luminoskan Ascent (Thermofisher). Dose response curves of the compounds were performed in 2-fold (0,0625 μM-32 μM).
Cells were treated with compound (prepared at 22×, 10 min pre-incubation) together with NRG-1 (0.1 μM final concentration, Peprotech, 100-03), or NRG-1 (0.1 μM final concentration) or PBS.
The EC50 and the Emax of the compounds on top of 0.1 μM NRG1 is depicted in Table 3 relative to NRG1 (set as 100%).

In series [2] the target is T1, ERBB4. Description: PathHunter ERBB4/ERBB4 dimerization assay, dose-response curves. Type of series: cell-based. As to conditions: U2OS ERBB4/ERBB4 dimerization cell line, 6 hours, compound alone; for Emax: NRG-1 = 100. As for the experimental part: as §1
From these curves, the EC50 and the Emax of the compounds was calculated.

Series [3] deals with Human atrial cardiac fibroblasts (HCF). Description: In vitro fibrosis assay, TGFβ-stimulated HCF (qRT-PCR). Type of series: cell-based. The conditions noted are these: TGFβ 10 ng/mL, 24 hours (FIG. 9). Here is the method:
Human dermal fibroblasts (HDF, Cell applications, 106-05A) were cultured in Dulbecco's modified Eagle's medium (DMEM, ThermoFisher Scientific, 11995065) supplemented with 10% (v/v) heat-inactivated fetal bovine serum (FBS, ThermoFisher Scientific, 10082147), 1% penicillin/streptomycin and 1 mL polymyxin B and were maintained at 37° C. in humidified atmosphere of 5% CO2 in air. Human atrial cardiac fibroblasts (HCF, Innoprot, P10454) were cultured in fibroblast medium (Innoprot, P60108) supplemented with fetal bovine serum, fibroblast growth supplement and penicillin/streptomycin and were maintained at 37° C. in humidified atmosphere of 5% CO2 in air.
Following 1-9 passages, HDF and HCF were seeded at 0.3×10^6 cells/well in 1 mL cell medium in 12-well plates and incubated overnight at 37° C. in humidified atmosphere of 5% CO2 in air. Next, cells were put on serum starved medium (0.1% FBS) for 8 hours and then stimulated for 24 hours with either PBS, active compound (4-32 μM) or non-active compound (NA1, NA2; 4-32 μM) on top of TGFβ (10 ng/mL, Peprotech, 100-21). […] Next, cells were lysed using 100 μL lysis buffer RA1 (of RNA isolation kit below) supplemented with β-mercapto-ethanol (100:1), scraped with a cell scraper and transferred to centrifuge tubes to be stored at −20° C. for a maximum of 2 weeks before RNA isolation.
RNA was extracted using Nucleospin RNA XS (Machery Nagel) according to the manufacturer's instructions. For cDNA synthesis, total RNA was added to a solution containing buffer with random hexamers and reverse transcriptase enzyme. The PCR was performed using the following parameters: 10 minutes at 25° C., 30 minutes at 48° C., 5 minutes at 95° C. RT-qPCR on the cDNA samples was performed using Taqman Universal PCR Master Mix (Applied Biosystems) and Taqman primers according to the manufacturer's instructions. […] Expression levels were calculated using the comparative cycle method and expressed as fold change to appropriate (background) control. […]
Background: Quantitative PCR measures a nucleic acid by following its amplification.

In series [4] the test system is EFO-21 cells. Description: AK (adenylate kinase) toxicity assay. Type of series: cell-based. As to conditions: 32 μM, 24 hours, EFO-21 cells (FIG. 3). As for the experimental part: EFO-21 cells were seeded at 10,000 cells/well in 100 μL cell medium in white walled 96-well plates (PerkinElmer, 6005680) and incubated overnight at 37° C. in humidified atmosphere of 5% CO2 in air. Next, cells were put on serum starved (SS) medium (0,1% FBS) overnight. Overnight cell cultures were then stimulated with PBS, compound (32 μM, Enamine) and/or NRG-1 (0.1 μM, Peprotech, 100-03) for 24 hours at 37° C. in humidified atmosphere of 5% CO2 in air. […] Next, 100 μL Toxilight AK detection reagent was added to each well and incubated at room temperature for 5 minutes. Luminescence was measured using the Luminoskan Ascent (Thermofisher).

Series [5] in a line: Solubility in PBS (absorbance). The conditions noted are these: aqueous buffer, kinetic from dmso stock, 37° C., 2 hours (FIG. 10), read-out: solubility: concentration at which easily soluble. It counts as physicochemical. As for the experimental part: A dilution series (0.16, 0.31, 0.62, 1.25, 2.5 and 5 mM) was made starting with a compound stock solution of 10 mM in DMSO. Aliquot of 4 μL was taken out of every dilution and added to 196 μL PBS in a 96-well plate. The plate was shaken for 10 seconds, incubated at 37° C. for 2 hours and thereafter absorbance was measured. Samples were analyzed in duplicate.

Series [6] is described as follows: Metabolic stability, human liver microsomes. It counts as in vitro ADME. As for the experimental part:
(§2) A mixture of 713 μL milliQ water (Millipore, MA, USA), 200 μL 0.5 M phosphate buffer (pH 7.4, BD Diagnostic Systems, MD, USA), 50 μL NADPH regenerating system solution A (BD Biosciences, CA, USA), 10 μL NADPH regenerating system solution B (BD Biosciences, CA, USA) and 2 μL compound (5 mM in DMSO) was prepared and heated for 5 min at 37° C. Twenty-five μL of liver microsomes (0.5 mg protein/mL, Corning B.V. Life Sciences, Amsterdam, Netherlands) was added to the mixture and 20 μL samples were withdrawn at 0, 0.25, 0.5 and 1, 2, 4, 6 and 24 hours. Eighty μL (4×20 μL) of cold acetonitrile (Sigma-Aldrich, MO, USA) was added to the samples on ice for 10 min. Afterwards, the mixtures were centrifuged at 13,000 rpm for 5 min at 4° C. Seventy-five μL of an acetonitrile/water (10/90) mixture was added to 25 μL supernatant and the obtained samples were analyzed by LC-MS/MS (Waters Acquity H-class UPLC system with ion trap mass spectrometer, Bruker Daltonics Esquire 3000 plus, and Agilent 1100 Series LC system) in triplicate.
A general note: Liver microsomes are vesicles of endoplasmic reticulum, rich in cytochrome P450 enzymes.

Series [7] is described as follows: Plasma stability, mouse plasma. As to conditions: 50 μM, 37° C., over 6 hours (FIG. 12). Type of series: in vitro ADME. Here is the method:
(§3) A 5 μL aliquot of compound solution (10 mM in DMSO) was added to 995 μL of Non Swiss Albino Mouse Plasma (DivBioScience, Breda, Netherlands) or Pooled Normal Human plasma in sodium citrate to obtain a final concentration of 50 μM compound in plasma. The mixture was gently shaken for 6 hours at 37° C. Aliquots of 100 μL were taken at various time points (0, 0.5, 1, 2 and 6 hrs.) and diluted with 400 μL of cold acetonitrile (Sigma-Aldrich, stored at 4° C.). The suspension was centrifuged at 14000 rpm for 5 min. Thereafter, 50 μL of the supernatant was diluted with 950 μL of acetonitrile and analyzed with LC-MS/MS (Waters Acquity H-class UPLC system with ion trap mass spectrometer, Bruker Daltonics Esquire 3000 plus, and Agilent 1100 Series LC system). Samples were analyzed in triplicate and plotted against a standard curve (compound at 3.12-100 μM in plasma and diluted in acetonitrile as described above).

Series [8] is described as follows: Metabolic stability, mouse liver microsomes. Type of series: in vitro ADME. Here is the method:
as §2

A short description of series [9]: Plasma stability, human plasma. It counts as in vitro ADME. The conditions noted are these: 50 μM, 37° C., over 6 hours (FIG. 12). Here is the method:
as §3

A short description of series [10]: Chemical stability. Type of series: physicochemical. As to conditions: 37° C. and pH 7.4 for 24 hours (FIG. 11). Here is the method:
A 10 μL aliquot of compound solution (10 mM in DMSO) was added to 990 μL DMSO (100 μM) and further diluted with […] to a stock solution of 500 nM. The mixture was incubated at 37° C. Aliquots of 100 μL were taken at various time points (0, 0.5, 1, 2, 3, 6 and 24 hrs) and analyzed with LC-MS/MS (Waters Acquity H-class UPLC system with ion trap mass spectrometer, Bruker Daltonics Esquire 3000 plus, and Agilent 1100 Series LC system). Samples were analyzed in triplicate and plotted against a standard curve; compound at 31-500 nM in buffer solution of pH 7.4 (10 mM Potassium Phosphate, BD Gentest).

Where only a bound is given, the exact number is not on record here.

T1 sequence (Q15303 26-1308): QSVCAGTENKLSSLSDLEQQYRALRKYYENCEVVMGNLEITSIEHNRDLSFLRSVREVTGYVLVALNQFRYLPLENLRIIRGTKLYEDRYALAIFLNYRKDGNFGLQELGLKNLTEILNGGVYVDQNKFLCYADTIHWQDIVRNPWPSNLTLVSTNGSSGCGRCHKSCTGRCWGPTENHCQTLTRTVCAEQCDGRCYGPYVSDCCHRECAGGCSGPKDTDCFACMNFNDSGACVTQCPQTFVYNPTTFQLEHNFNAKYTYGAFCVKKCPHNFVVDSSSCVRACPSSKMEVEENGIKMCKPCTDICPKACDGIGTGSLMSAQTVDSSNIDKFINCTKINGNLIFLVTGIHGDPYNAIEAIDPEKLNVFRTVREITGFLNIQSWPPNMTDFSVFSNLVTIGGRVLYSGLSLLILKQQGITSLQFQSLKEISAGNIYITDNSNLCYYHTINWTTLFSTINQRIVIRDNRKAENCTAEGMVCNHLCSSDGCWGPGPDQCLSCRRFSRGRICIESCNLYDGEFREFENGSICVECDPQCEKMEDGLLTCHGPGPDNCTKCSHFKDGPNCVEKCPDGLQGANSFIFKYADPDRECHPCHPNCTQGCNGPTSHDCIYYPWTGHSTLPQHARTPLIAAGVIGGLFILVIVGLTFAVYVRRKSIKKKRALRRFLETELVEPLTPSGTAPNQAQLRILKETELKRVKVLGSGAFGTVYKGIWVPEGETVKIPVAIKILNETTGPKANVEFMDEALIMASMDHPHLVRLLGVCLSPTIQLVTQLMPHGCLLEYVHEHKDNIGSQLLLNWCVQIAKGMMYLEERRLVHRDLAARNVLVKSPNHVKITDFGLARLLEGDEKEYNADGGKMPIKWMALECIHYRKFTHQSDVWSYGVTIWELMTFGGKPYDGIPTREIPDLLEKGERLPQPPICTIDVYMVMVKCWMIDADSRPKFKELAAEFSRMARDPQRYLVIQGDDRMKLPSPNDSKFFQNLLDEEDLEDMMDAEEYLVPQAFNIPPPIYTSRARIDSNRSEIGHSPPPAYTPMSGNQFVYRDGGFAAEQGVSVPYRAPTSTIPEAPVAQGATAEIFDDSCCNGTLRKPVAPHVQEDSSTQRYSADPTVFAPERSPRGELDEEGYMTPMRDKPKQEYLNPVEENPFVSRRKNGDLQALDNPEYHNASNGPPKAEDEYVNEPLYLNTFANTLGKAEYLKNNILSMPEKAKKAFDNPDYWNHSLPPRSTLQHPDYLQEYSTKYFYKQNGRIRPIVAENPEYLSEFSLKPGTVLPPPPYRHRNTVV

As to `CC(=O)c1ccc(NC(=O)C(C)Sc2nc3ccccc3c(=O)n2C2CCCC2)cc1` (stereo not drawn) [Compound 2], in series [1], the Emax came to 126 ± 36% and the “behaviour from the shape of the dose-response curves” value (shortened to “behaviour from the shape”) is “weak or silent allosteric modulators”. Besides, in [2], a half-maximal effect (EC50) was put at 10.9 µM and the Emax was 9.48 ± 2.13%.
`CC(Sc1nc2ccccc2c(=O)n1C1CCCC1)C(=O)N(C)c1ccccc1` (stereo not drawn) [Compound 3]: in series [3], the “col1a1 levels in comparison with TGFβ control” value is listed as “significantly decrease col1a1 levels”. Further, the “toxicity (AK release)” value in [4] is “limited toxicity”. Besides, in series [1], the Emax worked out at 36 ± 13% and the “behaviour from the shape” value is “partial agonists or allosteric agonists functioning as partial agonists”. Further, in series [2], a half-maximal effect (EC50) was put at 15.8 µM and the maximum response (Emax) turned out to be 14.3 ± 2.63%.
Regarding `CC(C)n1c(SC(C(=O)NC2CC2)c2ccccc2)nc2sc3c(c2c1=O)CCC3` (stereo not drawn) [Compound 4], the solubility at 2 h in series [5] was less than 25 µM. Further, in [6] (human liver microsomes), the “t1/2 human” value turned out to be 18 min. Further, the half-life at 10 µM lay within 17 to 18 min in [6] (human, liver microsomes, pH 7.4, human liver microsomes, read-out: t1/2 human) and 8 to 12 min in series [8] (mouse, liver microsomes, pH 7.4, mouse liver microsomes, read-out: t1/2 mouse). Further, the “plasma stability, mouse plasma” value in [7] was “stable”. For the same compound, the “t1/2 mouse” value in series [8] (mouse liver microsomes) was determined as 12 min. In [9], the “plasma stability, human plasma” value is recorded as “stable”. Moreover, the EC50 in [1] is approximately 21.5 µM; in series [2] it was 7.54 µM. Further, the values for the Emax in series [1] and in [2] were 192 ± 34% and 16.9 ± 3.69%, respectively. In addition, the “behaviour from the shape” value in series [1] is listed as “ago-allosteric modulators”. Further, the chemical stability result in series [10] is reported as “chemically stable”.
Take `O=C1NCCCCC1Sc1nc2sc3c(c2c(=O)n1C1CCCC1)CCCC3` (stereo not drawn) [Compound 5]: in series [4], the “toxicity (AK release)” value is given as “limited toxicity”. Moreover, in series [1], the EC50 was approximately 3.36 µM, the Emax was determined as 63 ± 14% and the “behaviour from the shape” value was “partial agonists or allosteric agonists functioning as partial agonists”. In series [2], this compound came in with an EC50 of 6.11 µM and an Emax of 17.7 ± 3.45%.
`Cc1sc2cc(SCC(=O)NC(C)(C#N)C(C)C)n(C3CCCC3)c(=O)c2c1C` (stereo not drawn) [Compound 8]: in [1], the Emax was determined as 174 ± 38% and the “behaviour from the shape” value is given as “ago-allosteric modulators”. In series [2], this compound registered an EC50 of 20.4 µM and an Emax of 18.4 ± 3.47%.

What is called Emax is the maximal effect, on the per cent scale that the assay sets. Broadly, the EC50 is the concentration needed to bring the measured effect to its halfway point. Low readings indicate higher potency in that assay, high ones lower potency in that assay.
